Biological target: T1, BTK (Homo sapiens (Human), UniProt Q06187)
Test: Washout experiment with Ramos cells (PLCγ2 phosphorylation)
Assay type: cell-based
Conditions: Ramos washout assay, 100 nM compound for 1 hour
Description: Washout Experiment with Ramos Cells
Ramos cells were serum starved for one hour in RPMI media +1% glutamine at 37° C. After starvation, Ramos cells were treated with 100 nM compound diluted in serum free RPMI media for 1 hour. After compound treatment, the media was removed and cells were washed with compound-free media. Subsequently, Ramos cells were washed every 2 hours and resuspended in fresh compound-free media. Cells were collected at specified timepoints, treated with 1 ug anti-human IgM (Southern Biotech cat #2022-01) for 10 minutes on ice to induce BCR signaling and then washed in PBS. Ramos cells were then lysed in Cell Extraction Buffer (Invitrogen FNN0011) supplemented with Roche complete protease inhibitor tablets (Roche 11697498001) and phosphatase inhibitors (Roche 04 906 837 001) and 18 ug total protein lysate was loaded in each lane. Inhibition of BTK kinase activity was assayed by measuring its substrate (PLCγ2) phosphorylation by western blot with phospho-specific antibodies from Cell Signaling Technologies cat#3871. The results of this experiment with compounds I-2, I-4 and I-7 are depicted in FIGS. 1, 2 and 3.

T1 sequence (Q06187 whole entry): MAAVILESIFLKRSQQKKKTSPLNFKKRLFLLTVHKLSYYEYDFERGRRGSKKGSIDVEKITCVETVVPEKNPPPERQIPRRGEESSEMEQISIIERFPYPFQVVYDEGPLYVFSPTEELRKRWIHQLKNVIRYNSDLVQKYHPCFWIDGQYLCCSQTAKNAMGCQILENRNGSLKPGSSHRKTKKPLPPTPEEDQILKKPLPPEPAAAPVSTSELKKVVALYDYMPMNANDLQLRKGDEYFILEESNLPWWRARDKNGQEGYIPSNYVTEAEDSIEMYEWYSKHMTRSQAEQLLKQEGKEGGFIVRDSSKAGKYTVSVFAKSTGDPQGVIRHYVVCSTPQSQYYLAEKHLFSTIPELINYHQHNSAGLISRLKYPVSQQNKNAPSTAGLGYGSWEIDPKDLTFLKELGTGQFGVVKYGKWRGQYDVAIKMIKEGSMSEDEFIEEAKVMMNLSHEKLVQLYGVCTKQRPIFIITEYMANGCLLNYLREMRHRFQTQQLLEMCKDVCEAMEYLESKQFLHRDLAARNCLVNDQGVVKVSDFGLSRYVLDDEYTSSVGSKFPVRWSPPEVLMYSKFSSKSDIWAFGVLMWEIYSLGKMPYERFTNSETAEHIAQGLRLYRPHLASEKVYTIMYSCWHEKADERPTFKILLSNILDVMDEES

Q: With `C=CC(=O)Nc1cccc(Oc2nc(Nc3ccccc3)ncc2C)c1` [Compound I-248, N-(3-(5-methyl-2-(phenylamino)pyrimidin-4-yloxy)phenyl)acrylamide] as the compound, how does the “BTK Inhibition Type” value read?
A: irreversible

Q: With `C#CCOc1cccc(Nc2ncc(C)c(Nc3cccc(NC(=O)C=C)c3)n2)c1` [Compound I-35, N-(3-(5-methyl-2-(3-(prop-2-ynyloxy)phenylamino)pyrimidin-4-ylamino)phenyl) acrylamide] as the compound, how does the “BTK Inhibition Type” value read?
A: irreversible

Q: Which “BTK Inhibition Type” value does the source give for `C=CC(=O)Nc1cccc(Nc2nc(Nc3ccccc3)ncc2C(N)=O)c1` [Compound I-230, 4-(3-acrylamidophenylamino)-2-(phenylamino)pyrimidine-5-carboxamide] here?
A: irreversible

Q: How did the “BTK Inhibition Type” value turn out when `C=CC(=O)Nc1cccc(Nc2nc(Nc3ccc(OC)nc3)ncc2F)c1` [Compound I-243, N-(3-(5-fluoro-2-(6-methoxypyridin-3-ylamino)pyrimidin-4-ylamino)phenyl)acrylamide] was run?
A: irreversible

Q: For `Cc1cnc(Nc2ccccc2)nc1Nc1cccc(NC(=O)/C=C/CN(C)C)c1` [Compound I-38, (E)-4-(dimethylamino)-N-(3-(5-methyl-2-(phenylamino)pyrimidin-4-ylamino)phenyl)but-2-enamide], which “BTK Inhibition Type” value is on record?
A: reversible

Q: Which “BTK Inhibition Type” value does the source give for `C=CC(=O)Nc1cccc(Oc2nc(Nc3ccccc3)ncc2F)c1` [Compound I-228, N-(3-(5-fluoro-2-(phenylamino)pyrimidin-4-yloxy)phenyl)acrylamide] here?
A: irreversible

Q: For `C=CC(=O)Nc1cccc(Nc2nc(Nc3cccc(OC)c3)ncc2C(F)(F)F)c1` [Compound I-242, N-(3-(5-trifluoromethyl-2-(3-methoxyphenylamino)pyrimidin-4-ylamino)phenyl)acrylamide], which “BTK Inhibition Type” value is on record?
A: irreversible

Q: With `C=CC(=O)Nc1cccc(Nc2nc(Nc3ccc(F)cc3)ncc2F)c1` [Compound I-247, N-(3-(5-fluoro-2-(4-fluorophenylamino)pyrimidin-4-ylamino)phenyl)acrylamide] as the compound, how does the “BTK Inhibition Type” value read?
A: irreversible

Q: How did the “BTK Inhibition Type” value turn out when `C=CC(=O)Nc1cccc(Nc2nc(Nc3ccccc3)ncc2F)c1` [Compound I-28, N-(3-(5-fluoro-2-(phenylamino)pyrimidin-4-ylamino)phenyl)acrylamide] was run?
A: irreversible

Biological target: T1, BTK
Test: Mass spectrometry for BTK (intact protein, covalent modification)
Assay type: binding
Conditions: intact BTK, 1 hr, 10× fold excess of compound
Description: Mass Spectrometry for BTK
Intact BTK was incubated for 1 hr at a 10× fold excess of I-7 to protein. Aliquots (2 μl) of the samples were diluted with 10 μl of 0.1% TFA prior to micro C4 ZipTipping directly onto the MALDI target using Sinapinic acid as the desorption matrix (10 mg/ml in 0.1% TFA:Acetonitrile 20:80).

Q: For `C=CC(=O)N1CCC[C@@H](Nc2nc(Nc3cccc(OC)c3)ncc2F)C1` [Compound I-195, (R)-1-(3-(5-fluoro-2-(3-methoxyphenylamino)pyrimidin-4-ylamino)piperidin-1-yl)prop-2-en-1-one], which “covalent modification of BTK by mass spectrometry” value (“covalent modification of BTK” below) is on record?
A: completely modify

Q: Which “covalent modification of BTK” value does the source give for `CC(C)=CC(=O)c1cccc(Nc2nc(Nc3cccc(OCCN(C)C)c3)ncc2F)c1` [Compound I-207] here?
A: completely modify

Q: With `C=CC(=O)Nc1cccc(Nc2nc(Nc3ccc(OCCOC)cc3)ncc2F)c1` [Compound I-182, N-(3-(5-fluoro-2-(4-(2-methoxyethoxy)phenylamino)pyrimidin-4-ylamino)phenyl)acrylamide] as the compound, how does the “covalent modification of BTK” value read?
A: completely modify

Q: How did the “covalent modification of BTK” value turn out when `C=CC(=O)N(C)Cc1ccc(Nc2nc(Nc3ccccc3)ncc2C)cc1` [Compound I-219, N-methyl-N-(4-(5-methyl-2-(phenylamino)pyrimidin-4-ylamino)benzyl)acrylamide] was run?
A: completely modify

Q: For `C=C(C#N)C(O)c1cccc(Nc2nc(Nc3ccc(OCCOC)cc3)ncc2F)c1` (centres unmarked) [Compound I-71, 2-((3-(5-fluoro-2-(4-(2-methoxyethoxy)phenylamino)pyrimidin-4-ylamino)phenyl)(hydroxy)methyl)acrylonitrile], which “covalent modification of BTK” value is on record?
A: completely modify

Q: For `C=C(C#N)C(O)c1ccc(Nc2nc(Nc3ccccc3)ncc2F)cc1` (centres unmarked) [Compound I-161, 2-((4-(5-fluoro-2-(phenylamino)pyrimidin-4-ylamino)phenyl)(hydroxy)methyl)acrylonitrile], which “covalent modification of BTK” value is on record?
A: completely modify

Q: “2-((4-(5-fluoro-2-(3-trifluoromethoxyphenylamino)pyrimidin-4-ylamino)phenyl)(hydroxy)methyl)acrylonitrile [Compound I-163]” was tested. Which “covalent modification of BTK” value did it give?
A: completely modify

Q: `C=CC(=O)Nc1cccc(Nc2nc(Nc3cccc(OC(F)(F)F)c3)ncc2F)c1` [Compound I-244, N-(3-(5-fluoro-2-(3-(trifluoromethoxy)phenylamino)pyrimidin-4-ylamino)phenyl)acrylamide] was tested. Which “covalent modification of BTK” value did it give?
A: completely modify

Q: `C=CC(=O)Nc1cccc(Nc2nc(Nc3ccc(OCCOC)c(F)c3)ncc2F)c1` [Compound I-96, N-(3-(2-(3-fluoro-4-(2-methoxyethoxy)phenylamino)-5-fluoropyrimidin-4-ylamino)phenyl)acrylamide] was tested. Which “covalent modification of BTK” value did it give?
A: completely modify

Q: For `C=CC(=O)N1CCOc2ccc(Nc3ncc(F)c(Nc4cccc(Cl)c4)n3)cc21` [Compound I-149, 1-(6-(4-(3-chlorophenylamino)-5-fluoropyrimidin-2-ylamino)-2H-benzo[b][1,4]oxazin-4(3H)-yl)prop-2-en-1-one], which “covalent modification of BTK” value is on record?
A: completely modify

Biological target: T1, BTK
Test: BTK occupancy from in vitro samples by ELISA (Ramos cells, probe I-215)
Assay type: cell-based
Conditions: probe I-215 ELISA
Excerpt: Measuring BTK occupancy from in vitro samples by ELISA
In order to determine the amount of free BTK in cell or tissue lysates, an ELISA protocol was employed that utilizes a biotinylated probe compound that binds only to free, unoccupied BTK. The conjugated biotin is captured on a streptavidin-coated ELISA plate and detected with a mouse anti-BTK antibody (Becton Dickinson, Franklin Lakes, N.J., USA) and a secondary goat anti-mouse HRP antibody (Zymed, South San Francisco, Calif., USA).
All samples were prepared with equal concentrations of Biorad lysis buffer (Hercules, Calif., USA), 0.5% bovine serum albumin in PBS with 0.05% Tween-20 to give a final concentration of 1 μM I-215. Samples were incubated in a mixing plate for 1 hr at room temperature while shaking to allow probe compound I-215 to bind to free BTK. After incubation with I-215, samples were added to a washed, streptavidin-coated ELISA plate (Pierce, Rockford, Ill., USA) and incubated for 1 hr at room temperature while shaking. The plate was then washed with PBS containing 0.05% Tween-20 using an automatic plate washer. Anti-BTK antibody was prepared at 1:1000 dilution in 0.5% BSA in PBS (0.05% Tween-20) and added to the ELISA plate. The plate was incubated for 1 hr at room temperature while shaking. The plate was washed as described above and the secondary HRP antibody was prepared at 1:5000 dilution in 0.5% BSA in PBS (0.05% Tween-20). The plate was incubated and washed as described above. TMB was added to the plate, and OD650 was monitored until reaching 1 OD unit. The reaction was then stopped with addition of H2SO4. The plate was analyzed using Gen 5 software, and a 4 Parameter Logistic curve was employed to quantitate samples. Recombinant BTK (Invitrogen, Carlsbad, Calif., USA) was used for the standard curve.
A concentration designated as “A” is greater than 1 nM; a concentration designated as “B” is greater than 10 nM; and a concentration designated as “C” is greater than 50 nM.

Q: Which “concentration at which >50% of BTK is occupied” value does the source give for `C=CC(=O)Nc1cccc(Nc2nc(Nc3ccc(OCCOC)cc3)ncc2F)c1` [Compound I-182, N-(3-(5-fluoro-2-(4-(2-methoxyethoxy)phenylamino)pyrimidin-4-ylamino)phenyl)acrylamide] here?
A: A (greater than 1 nM)

Q: And the “concentration at which >90% of BTK is occupied” value?
A: C (greater than 50 nM)

Q: For `C=CC(=O)Nc1cccc(Nc2nc(Nc3ccc(OCCOC)c(F)c3)ncc2F)c1` [Compound I-96, N-(3-(2-(3-fluoro-4-(2-methoxyethoxy)phenylamino)-5-fluoropyrimidin-4-ylamino)phenyl)acrylamide], which “concentration at which >50% of BTK is occupied” value is on record?
A: A (greater than 1 nM)

Q: And the “concentration at which >90% of BTK is occupied” value?
A: B (greater than 10 nM)

Reference: US10828300B2, “Substituted 2,4-diaminopyrimidines as kinase inhibitors” (Celgene CAR LLC, priority 2008, dated 2020)
